From US6706740B2, “Fungicidal heterocyclic aromatic amides and their compositions, methods of use and preparation” (Dow AgroSciences LLC, priority 1999, dated 2004)

Each molecule was assayed on Stagonospora nodorum (Leptosphaeria nodorum—LEPTNO) (assay: In vitro fungal growth inhibition, Stagonospora nodorum (LEPTNO)). Conditions: Leptosphaeria; 25 ppm in growth medium; read-out: LEPTNO in vitro Growth Inhibition.
Format: cell-based

| SMILES | inhibition at 25 ppm [%] |
| --- | --- |
| COc1ccnc(C(=O)N[C@H]2COC(=O)[C@H](Cc3ccccc3)[C@@H](OC(=O)C(C)C)[C@H](C)OC2=O)c1OC(=O)c1cc(Cl)cnc1Cl [Compound 671] | > 80 |
| COc1ccnc(C(=O)N[C@H]2COC(=O)[C@H](Cc3ccccc3)[C@@H](OC(=O)C(C)C)[C@H](C)OC2=O)c1OC(=O)c1ccccc1Br [Compound 647] | > 80 |
| COc1ccnc(C(=O)N[C@H]2COC(=O)[C@H](Cc3ccccc3)[C@@H](OC(=O)C(C)C)[C@H](C)OC2=O)c1OC(=O)c1cccc(C)c1C [Compound 632] | > 80 |
| COc1ccnc(C(=O)N[C@H]2COC(=O)[C@H](Cc3ccccc3)[C@@H](OC(=O)C(C)C)[C@H](C)OC2=O)c1OC(=O)C(Cl)c1ccccc1 (stereo partly drawn) [Compound 649] | > 80 |
| COc1ccnc(C(=O)N[C@H]2COC(=O)[C@H](Cc3ccccc3)[C@@H](OC(=O)C(C)C)[C@H](C)OC2=O)c1OC(=O)Cc1cccs1 [Compound 675] | > 80 |
| COc1ccnc(C(=O)NC(Cc2ccc(OCc3ccccc3)cc2)C(=O)O)c1O (stereo not drawn) [Compound 374] | > 80 |
| C=CCOC(=O)Oc1c(OC)ccnc1C(=O)N[C@H]1COC(=O)[C@H](Cc2ccccc2)[C@@H](OC(=O)C(C)C)[C@H](C)OC1=O [Compound 681] | > 80 |

What follows are molecules tested on Mycosphaerella graminicola (Septoria tritici—SEPTTR) (assay: In vitro fungal growth inhibition, Mycosphaerella graminicola (SEPTTR)). Conditions: Zymoseptoria tritici; 25 ppm in growth medium; read-out: SEPTTR in vitro Growth Inhibition.
Format: cell-based

| SMILES | inhibition at 25 ppm [%] |
| --- | --- |
| COc1ccnc(C(=O)N[C@H]2COC(=O)[C@H](Cc3ccccc3)[C@@H](OC(=O)C(C)C)[C@H](C)OC2=O)c1OC(=O)c1cc(Cl)cnc1Cl [Compound 671] | < 80 |
| COc1ccnc(C(=O)N[C@H]2COC(=O)[C@H](Cc3ccccc3)[C@@H](OC(=O)C(C)C)[C@H](C)OC2=O)c1OC(=O)c1ccccc1Br [Compound 647] | < 80 |
| COc1ccnc(C(=O)N[C@H]2COC(=O)[C@H](Cc3ccccc3)[C@@H](OC(=O)C(C)C)[C@H](C)OC2=O)c1OC(=O)c1cccc(C)c1C [Compound 632] | < 80 |
| COc1ccnc(C(=O)N[C@H]2COC(=O)[C@H](Cc3ccccc3)[C@@H](OC(=O)C(C)C)[C@H](C)OC2=O)c1OC(=O)C(Cl)c1ccccc1 (stereo partly drawn) [Compound 649] | < 80 |
| COc1ccnc(C(=O)N[C@H]2COC(=O)[C@H](Cc3ccccc3)[C@@H](OC(=O)C(C)C)[C@H](C)OC2=O)c1OC(=O)Cc1cccs1 [Compound 675] | < 80 |
| COc1ccnc(C(=O)NC(Cc2ccc(OCc3ccccc3)cc2)C(=O)O)c1O (stereo not drawn) [Compound 374] | < 80 |
| C=CCOC(=O)Oc1c(OC)ccnc1C(=O)N[C@H]1COC(=O)[C@H](Cc2ccccc2)[C@@H](OC(=O)C(C)C)[C@H](C)OC1=O [Compound 681] | < 80 |

The molecules below were run on Rhizoctonia solani (RHIZSO) (assay: microbe, parasite or virus in culture). Conditions: Rhizoctonia solani, read-out: RHIZSO in vitro Growth Inhibition.
Format: cell-based

| SMILES | inhibition at 25 ppm [%] |
| --- | --- |
| COc1ccnc(C(=O)N[C@H]2COC(=O)[C@H](Cc3ccccc3)[C@@H](OC(=O)C(C)C)[C@H](C)OC2=O)c1OC(=O)c1cc(Cl)cnc1Cl [Compound 671] | < 80 |
| COc1ccnc(C(=O)N[C@H]2COC(=O)[C@H](Cc3ccccc3)[C@@H](OC(=O)C(C)C)[C@H](C)OC2=O)c1OC(=O)c1ccccc1Br [Compound 647] | < 80 |
| COc1ccnc(C(=O)N[C@H]2COC(=O)[C@H](Cc3ccccc3)[C@@H](OC(=O)C(C)C)[C@H](C)OC2=O)c1OC(=O)c1cccc(C)c1C [Compound 632] | < 80 |
| COc1ccnc(C(=O)N[C@H]2COC(=O)[C@H](Cc3ccccc3)[C@@H](OC(=O)C(C)C)[C@H](C)OC2=O)c1OC(=O)C(Cl)c1ccccc1 (stereo partly drawn) [Compound 649] | < 80 |
| COc1ccnc(C(=O)N[C@H]2COC(=O)[C@H](Cc3ccccc3)[C@@H](OC(=O)C(C)C)[C@H](C)OC2=O)c1OC(=O)Cc1cccs1 [Compound 675] | < 80 |
| COc1ccnc(C(=O)NC(Cc2ccc(OCc3ccccc3)cc2)C(=O)O)c1O (stereo not drawn) [Compound 374] | < 80 |
| C=CCOC(=O)Oc1c(OC)ccnc1C(=O)N[C@H]1COC(=O)[C@H](Cc2ccccc2)[C@@H](OC(=O)C(C)C)[C@H](C)OC1=O [Compound 681] | > 80 |

What follows are molecules tested on Phytophthora infestans (PHYTIN) (assay: microbe, parasite or virus in culture). Conditions: Phytophthora infestans, read-out: PHYTIN in vitro Growth Inhibition.
Format: cell-based

| SMILES | inhibition at 25 ppm [%] |
| --- | --- |
| COc1ccnc(C(=O)N[C@H]2COC(=O)[C@H](Cc3ccccc3)[C@@H](OC(=O)C(C)C)[C@H](C)OC2=O)c1OC(=O)c1cc(Cl)cnc1Cl [Compound 671] | < 80 |
| COc1ccnc(C(=O)N[C@H]2COC(=O)[C@H](Cc3ccccc3)[C@@H](OC(=O)C(C)C)[C@H](C)OC2=O)c1OC(=O)c1ccccc1Br [Compound 647] | < 80 |
| COc1ccnc(C(=O)N[C@H]2COC(=O)[C@H](Cc3ccccc3)[C@@H](OC(=O)C(C)C)[C@H](C)OC2=O)c1OC(=O)c1cccc(C)c1C [Compound 632] | < 80 |
| COc1ccnc(C(=O)N[C@H]2COC(=O)[C@H](Cc3ccccc3)[C@@H](OC(=O)C(C)C)[C@H](C)OC2=O)c1OC(=O)C(Cl)c1ccccc1 (stereo partly drawn) [Compound 649] | < 80 |
| COc1ccnc(C(=O)N[C@H]2COC(=O)[C@H](Cc3ccccc3)[C@@H](OC(=O)C(C)C)[C@H](C)OC2=O)c1OC(=O)Cc1cccs1 [Compound 675] | < 80 |
| COc1ccnc(C(=O)NC(Cc2ccc(OCc3ccccc3)cc2)C(=O)O)c1O (stereo not drawn) [Compound 374] | < 80 |
| C=CCOC(=O)Oc1c(OC)ccnc1C(=O)N[C@H]1COC(=O)[C@H](Cc2ccccc2)[C@@H](OC(=O)C(C)C)[C@H](C)OC1=O [Compound 681] | < 80 |

The molecules below were run on Ustilago maydis (USTIMA) (assay: microbe, parasite or virus in culture). Conditions: Mycosarcoma maydis, read-out: USTIMA in vitro Growth Inhibition.
Format: cell-based

| SMILES | inhibition at 25 ppm [%] |
| --- | --- |
| COc1ccnc(C(=O)N[C@H]2COC(=O)[C@H](Cc3ccccc3)[C@@H](OC(=O)C(C)C)[C@H](C)OC2=O)c1OC(=O)c1cc(Cl)cnc1Cl [Compound 671] | < 80 |
| COc1ccnc(C(=O)N[C@H]2COC(=O)[C@H](Cc3ccccc3)[C@@H](OC(=O)C(C)C)[C@H](C)OC2=O)c1OC(=O)c1ccccc1Br [Compound 647] | < 80 |
| COc1ccnc(C(=O)N[C@H]2COC(=O)[C@H](Cc3ccccc3)[C@@H](OC(=O)C(C)C)[C@H](C)OC2=O)c1OC(=O)c1cccc(C)c1C [Compound 632] | < 80 |
| COc1ccnc(C(=O)N[C@H]2COC(=O)[C@H](Cc3ccccc3)[C@@H](OC(=O)C(C)C)[C@H](C)OC2=O)c1OC(=O)C(Cl)c1ccccc1 (stereo partly drawn) [Compound 649] | < 80 |
| COc1ccnc(C(=O)N[C@H]2COC(=O)[C@H](Cc3ccccc3)[C@@H](OC(=O)C(C)C)[C@H](C)OC2=O)c1OC(=O)Cc1cccs1 [Compound 675] | < 80 |
| COc1ccnc(C(=O)NC(Cc2ccc(OCc3ccccc3)cc2)C(=O)O)c1O (stereo not drawn) [Compound 374] | < 80 |
| C=CCOC(=O)Oc1c(OC)ccnc1C(=O)N[C@H]1COC(=O)[C@H](Cc2ccccc2)[C@@H](OC(=O)C(C)C)[C@H](C)OC1=O [Compound 681] | < 80 |

Each molecule was assayed on Magnaporthe grisea (Pyricularia oryzae—PYRIOR) (assay: microbe, parasite or virus in culture). Conditions: Pyricularia oryzae, read-out: PYRIOR in vitro Growth Inhibition.
Format: cell-based

| SMILES | inhibition at 25 ppm [%] |
| --- | --- |
| COc1ccnc(C(=O)N[C@H]2COC(=O)[C@H](Cc3ccccc3)[C@@H](OC(=O)C(C)C)[C@H](C)OC2=O)c1OC(=O)c1cc(Cl)cnc1Cl [Compound 671] | < 80 |
| COc1ccnc(C(=O)N[C@H]2COC(=O)[C@H](Cc3ccccc3)[C@@H](OC(=O)C(C)C)[C@H](C)OC2=O)c1OC(=O)c1ccccc1Br [Compound 647] | < 80 |
| COc1ccnc(C(=O)N[C@H]2COC(=O)[C@H](Cc3ccccc3)[C@@H](OC(=O)C(C)C)[C@H](C)OC2=O)c1OC(=O)c1cccc(C)c1C [Compound 632] | < 80 |
| COc1ccnc(C(=O)N[C@H]2COC(=O)[C@H](Cc3ccccc3)[C@@H](OC(=O)C(C)C)[C@H](C)OC2=O)c1OC(=O)C(Cl)c1ccccc1 (stereo partly drawn) [Compound 649] | > 80 |
| COc1ccnc(C(=O)N[C@H]2COC(=O)[C@H](Cc3ccccc3)[C@@H](OC(=O)C(C)C)[C@H](C)OC2=O)c1OC(=O)Cc1cccs1 [Compound 675] | > 80 |
| COc1ccnc(C(=O)NC(Cc2ccc(OCc3ccccc3)cc2)C(=O)O)c1O (stereo not drawn) [Compound 374] | < 80 |
| C=CCOC(=O)Oc1c(OC)ccnc1C(=O)N[C@H]1COC(=O)[C@H](Cc2ccccc2)[C@@H](OC(=O)C(C)C)[C@H](C)OC1=O [Compound 681] | > 80 |
